We go through 1 molecule from patent US7625411B2, “Insecticidally treated fabric having improved wash durability and insecticidal efficacy and method for its production” (Piedmont Chemical Industries I, LLC, priority 2004, dated 2009).

The series can be described thus: Wash durability of permethrin-treated polyester fabric: accelerated laundering (AATCC Test Method 61-1996), solvent extraction, gas chromatography. It is filed as physicochemical. The note with it: without the binder system, just after the first wash. The protocol:
A polyester warp fleece weighing approximately 7.6 oz. per linear yard was used in this trial. Based on the weight of the fabric, calculating the percent wet pick-up the of fabric using production sqeeze pressures in the pad application, and the amount of permethrin target (1.25 g/m^2), the quantity of permethrin to be added to the pad bath was calculated using the above equation to be 1.68%. […] The fabric was padded and dried at a normal drying temperature for polyester (330 to 350° F.).
After the application of permethrin to the fabric, samples of the treated fabric were extracted with toluene according to the procedure outlined below in order to determine the amount of permethrin loaded onto the fabric. A swatch of fabric measuring approximately two feet by two feet is cut from the treated roll of fabric. From that swatch, 3 smaller pieces measuring 10 cm by 10 cm, were cut and used for extraction of permethrin. Each 10 by 10 swatch was placed in a 250 ml flat-bottomed flask, and from 50-75 ml of an extraction solvent (e.g., 1,1,1-trichloroethane) was added thereto. The flask was then equipped with a reflux condenser and placed on a hot plate and allowed to reflux for 0.5-0.75 hr. Once the samples have finished refluxing and have cooled, 0.05mg/ml of dioctylphthalate (“DOP”) is added to the liquid fraction as an internal standard for gas chromatography (“gc”). […]

The structures appear in SMILES notation.

On to `CC1(C)C(C=C(Cl)Cl)C1C(=O)OCc1cccc(Oc2ccccc2)c1` (centres unmarked) [permethrin], for which the “permethrin remaining in the fabric” value is reported as 0.20-0.30 g/m^2 and the “permethrin washed out of the fabric, of the initial amount loaded” value is on record as 60-80%.
